# Laboratory results as given in article PMC8767159, “Multiparameter Optimization of Trypanocidal Cruzain Inhibitors With In Vivo Activity and Favorable Pharmacokinetics” (Frontiers in Pharmacology, 2022).
# Key:
# [1] = Parallel artificial membrane permeability assay (PAMPA); format: in vitro ADME; set-up: PAMPA: unit: 1e-6 cm/s; settings: for PAMPA: unit not given
# Method: The permeability of the compounds was assessed using the PAMPA method ([Yu et al., 2015]). The test compounds were dissolved in DMSO to a concentration of 5 mM. Next, the compounds were diluted in a stock plate in saline phosphate buffer (PBS), pH 6.5, containing 1% DMSO to a concentration of 1 µM. Then, 300 µl of each test compound was added to the donor plate. Afterward, 200 µl of PBS buffer, pH 7.4, was added to the acceptor plate. The donor plate was attached to the acceptor plate. The assembled acceptor-donor plate was then incubated at 37°C for 5 h under gentle agitation. To analyze the concentration of the compounds by mass spectrometry, two analysis plates (one for the donor and another for the acceptor plate) containing 300 μl of MEOH:ACN 50:50 were prepared. To the donor analysis plate, 90 µl of PBS, pH 6.5, and 10 µl of the content of the donor plate were added. For the acceptor analysis plate, 100 µl of the content of the acceptor plate was added. To monitor any potential decomposition/intrinsic instability of the test compounds in solution, samples from the stock plate were subjected to LC-MS/MS. The compounds that presented Pe ≥ 1.5 × 10^−6 cm/s were classified as permeable, while compounds that presented Pe < 1.5 × 10^−6 cm/s were considered poorly permeable or nonpermeable.
# [2] = In vitro metabolic stability in human liver microsomes; format: in vitro ADME; settings: for CLint scaled at 5 µM: human, liver microsomes
# Method: (§1) Isolated mouse (BD Gentest, Bedford, MA) and human liver microsomes (XenoTech, Kansas City, KS) ([Plant, 2004]) were added at a final concentration of 0.25 mg/ml to a solution containing 40 mM dibasic potassium phosphate and 10 mM monobasic potassium phosphate. Stock solutions of compounds at 5 mM were prepared in 100% DMSO. A 50:50 quenching solution of acetonitrile (ACN) and methanol (MeOH) was prepared. An NADPH solution was prepared at 10 mM. The preparations containing the microsomes were added to each well of the incubation plate (450 µl), which was then heated to 37°C for 10 min. The compounds were added to the respective wells of the test plate (2 µl). Then, 300 µl of the microsome preparation was added to each well of the test plate. The test plate was heated under gentle rotation for 5 min at 37°C. Next, 90 µl of the mixture contained in the test plate was added to the incubation plate, making a final volume of 540 µl. Samples were collected at the following incubation times: 0, 5, 10, 15, 20, and 30 min. To the 0 min sample plate, quenching solution (180 µl), NADPH (6 µl), and the incubation plate mixture (54 µl) were added to each well. The sample plate was then sealed, homogenized, and stored at 4°C. Then, 54 µl of the NADPH solution was added to the incubation plate, which was homogenized. Before the collection of each sample at the established times, 45 µl of the quenching solution was added to each well of the corresponding sample plates. After reaching the incubation times, 60 µl of the mixture contained in the incubation plate was added to the corresponding sample plates. The sample plates were then sealed and stored at 4°C. After the collection of the last sample (30 min), all sample plates were centrifuged at 3,800 rpm for 30 min. The supernatant from each well was collected and transferred to clean plates for mass spectrometry. Five to 10 µl of each sample was injected into an AB Sciex Triple Quad 5500 LC-MS/MS instrument.
# (§2) For the biotransformation experiments and analysis of metabolites in microsomes, an Ultra-High-Pressure Liquid Chromatography instrument (UHPLC, Thermo Accela, Waltham, MA) ([Spaggiari et al., 2014]) connected to an automatic sample injector and a 1250 series pump was used. The UHPLC system was connected to a Thermo Fisher (Waltham, MA) LTQ Orbitrap mass spectrometer. For all other analyses, an AB Sciex Triple Quad 5500 coupled to a UHPLC equipped with a UV 1290 diode detector (Agilent Technologies, Santa Clara, CA) and a CTC PAL self-collecting system (LEAP Technologies, Carrboro, NC) was used. Q1 MS positive ion mode (300–500 Da) was used to detect the ions of the parent compounds. The UV detector was operated in spectral mode (250–280 nm). A Hypersil Gold C18 (2.1 mm × 100 mm, 1.9 µm, Thermo Fisher) HPLC column was used. The mobile phases were solvent A (0.1% formic acid in water) and solvent B (0.1% formic acid in ACN). The flow was adjusted to 0.55 ml/min, and the injection volume was adjusted to […]. The gradient started with 1% solvent B for 0.4 min, reached 40% (solvent B) in 2.3 min and 95% (solvent B) in 0.67 min, was maintained for 0.5 min, and returned to the initial condition of 1%. This condition was maintained for 1 min before injection of the next sample. The peak area ratio (peak area of the test compounds/peak area of the control compounds) was converted to the percentage of remaining compound, with the 0 min time point ratio set to 100%. T½ and CLint were calculated from the percentage of remaining compound versus the incubation time. From the resulting function, the slope (k) was determined. The equations T1/2 (min) = ln(2)/k and CLint in vitro (μL/min/mg) = k*1000/0.25 were used to determine T½ and CLint.
# [3] = In vitro metabolic stability in mouse liver microsomes; format: in vitro ADME; settings: mouse, liver microsomes
# Method: as §1, §2
# [4] = Experimental distribution coefficient (eLogD) by LC retention time; format: physicochemical; settings: for chromatographic logD: C18 column (LC retention time); for eLogD: Table S5
# Method: For the eLogD assays ([Waring, 2010]), each compound (5 μl) from a 5 mM stock solution was diluted in 245 μl of a solution containing buffers A (5% MeOH, 10 mM ammonium acetate, pH 7.4) and B (100% MeOH, pH 7.4) (50:50). Nine control compounds with known eLogD and column retention times (acyclovir, atenolol, antipyrine, fluconazole, metoprolol, carbamazepine, ketoconazole, tolnaftate, and amiodarone; eLogD values ranging from −1.86 to 6.1) were subjected to LC-MS/MS in triplicate before and after the analysis of the test compounds. Retention times were recorded for each control and test compound in a C18 column. The retention time of each control compound was plotted against the respective eLogD values described in the literature ([Lombardo et al., 2002]; [Lombardo et al., 2004]; [Alelyunas et al., 2010]). The resulting linear equation (y = mx + b) was used to calculate the eLogD values of the test compounds, in which x is the retention time in minutes and y is the eLogD value.
# [5] = Table S5, CLint/fu, read-out: CLint_u (L/h/kg) Human (converted)
# [6] = Table S5, CLint/fu, read-out: CLint_u (L/h/kg) Mouse (converted)
# [7] = Table S5, read-out: CLint (L/h/kg) Mouse (converted)
# [8] = Table 5, CLint/fu, read-out: CLint_u (L/h/kg) human (converted)
# [9] = Table 5, read-out: CLint (L/h/kg) human (converted)
# [10] = Table 5, CLint/fu, read-out: CLint_u (L/h/kg) mouse (converted)
# [11] = Table 5, read-out: CLint (L/h/kg) mouse (converted)
# [12] = PAMPA, Table 3, donor pH 6.5, acceptor pH 7.4, 5 h
# [13] = Table S5, read-out: CLint (L/h/kg) Human (converted)
Structure (SMILES),"Papp at 5 h, 1 µM ([1]; Table S5, unit inferred) [×10⁻⁶ cm/s]","CLint scaled at 5 µM [2, 5] [L/h/kg]","CLint scaled at 5 µM [3, 6] [L/h/kg]","CLint scaled at 5 µM [3, 7] [L/h/kg]","chromatographic logD ([4]; pH 7.4, Table S5)","Papp at 5 h, 1 µM ([1]; PAMPA, Table 5) [×10⁻⁶ cm/s]","CLint scaled at 5 µM [2, 8] [L/h/kg]","CLint scaled at 5 µM [2, 9] [L/h/kg]","CLint scaled at 5 µM [3, 10] [L/h/kg]","CLint scaled at 5 µM [3, 11] [L/h/kg]","chromatographic logD ([4]; pH 7.4, Table 5)","Papp at 5 h, 1 µM [1, 12] [×10⁻⁶ cm/s]",PAMPA ([1]; Table S5),"CLint_u (L/h/kg) Human ([2]; Table S5, CLint/fu) [L/h/kg]","CLint scaled at 5 µM [2, 13] [L/h/kg]","chromatographic logD ([4]; pH 7.4, Table 3, pH 7.4)",eLogD [4]
O=C(COc1cccc(NC(=O)CCCO)c1)NCCc1nc2ccccc2[nH]1 [Compound 7],0.03,< 1.5,8.19,8.19,2.23,,,,,,,,,,,,
O=C(COc1ccc(Br)cc1)NCCc1nc2ccccc2[nH]1 [Compound 33],,,,,,0.7,12.5,10.4,193,161,2.8,,,,,,
CC(=O)Nc1cccc(OCC(=O)NCCc2nc3ccccc3[nH]2)c1 [Compound 3],,6.9,10.6,10.6,,,,,,,,0.17,0.17,6.90,6.9,2.26,2.26
O=C(COc1ccccc1)NCCc1nc2ccccc2[nH]1 [Compound 1],,< 1.5,72.1,72.1,,,,,,,,4.21,4.21,,< 1.5,2.9,2.90
O=C(COc1ccccc1[N+](=O)[O-])NCCc1nc2ccccc2[nH]1 [Compound 32],,,,,,4.9,39.2,25.5,808,526,3.6,,,,,,
O=C(COc1ccccc1)NCCc1nc2ccccc2n1Cc1ccccc1 [Compound 26],,196,1010,620,,,,,,,,8.72,8.72,,120,4.06,4.06
C=CCCn1c(CCNC(=O)COc2ccccc2)nc2ccccc21 [Compound 27],,70.2,756,650,,,,,,,,9.06,9.06,,60.4,3.75,3.75
NC(=O)Cn1c(CCNC(=O)COc2ccccc2)nc2ccccc21 [Compound 28],,< 1.53,5.43,5.34,,,,,,,,0.71,0.71,,< 1.5,2.16,2.16
Cc1ccccc1OCC(=O)NCCc1nc2ccccc2[nH]1 [Compound 17],,,,,,5.9,31.2,23.9,392,300,3.6,,,,,,
Nc1cccc(OCC(=O)NCCc2nc3ccccc3[nH]2)c1 [Compound 9],,11.1,22.8,22.7,,,,,,,,0.38,0.38,,11,1.88,1.88
O=C(CCc1ccccc1Br)NCCc1nc2ccccc2[nH]1 [Compound 36],,,,,,4.7,38.2,28.8,935,705,3.8,,,,,,
Cn1c(CCNC(=O)COc2ccccc2)nc2ccccc21 [Compound 25],6.55,4.61,123,122,,,,,,,,1.46,,,4.57,2.93,2.93
O=C(COc1ccc2c(C(=O)O)cccc2c1)NCCc1nc2ccccc2[nH]1 [Compound 15],,< 1.5,12.9,12.9,1.31,,,,,,,,,,< 1.5,,
